In US20260159528A1, “HETEROCYCLIC COMPOUNDS AS TRIGGERING RECEPTOR EXPRESSED ON MYELOID CELLS 2 AGONISTS AND METHODS OF USE” (Vigil Neuroscience, Inc., priority 2021, published 2026):

These compounds were tested against T1, human TREM2 (Homo sapiens, UniProt Q9NZC2) (assay: TREM2 agonist potency by cellular Syk phosphorylation (AlphaLisa) in HEK293T-hTREM2 cells). Details: Table D-2; HEK293 cells expressing human TREM2 and DAP12; pSyk AlphaLisa.
T1 construct: expressed in transfected cells; host or cells: HEK293T
T1 sequence (Q9NZC2 19-230): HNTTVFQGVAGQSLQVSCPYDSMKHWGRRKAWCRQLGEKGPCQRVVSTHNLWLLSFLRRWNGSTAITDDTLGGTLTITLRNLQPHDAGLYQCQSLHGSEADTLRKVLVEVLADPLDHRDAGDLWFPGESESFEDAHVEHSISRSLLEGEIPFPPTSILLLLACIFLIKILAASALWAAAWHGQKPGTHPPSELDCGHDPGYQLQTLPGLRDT
T1 sequence (O43914 22-113 partner): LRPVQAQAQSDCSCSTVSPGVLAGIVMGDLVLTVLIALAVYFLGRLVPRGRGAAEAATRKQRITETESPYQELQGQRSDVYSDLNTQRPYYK
Type: cell-based
Experimental: In vitro Measurement of Triggering Receptor Expressed on Myeloid Cells 2 activity using cellular phosphorylation of Spleen Tyrosine Kinase (“Syk”) Assays
Measurement of TREM2 agonist potency was done using a HEK cell line expressing human TREM2 and DAP12 (HEK293T-hTREM2 cells). Binding of small molecules to, and activation of, TREM2 increases the phosphorylation of Syk. The resultant levels of Syk phosphorylation are measured using a commercial AlphaLisa reagent kit. To perform the assay, HEK-hTREM2 cells were plated at 14,000 cells per well in a 384 well plate, in 25 µL of complete growth media and incubated at 37° C., 5% CO2 for 20-24 hours.
Prior to the assay, test compounds were diluted in the 384 well plates in assay buffer and allowed to equilibrate for 30 minutes. Growth media was removed from cell plates by inversion on blotting paper, and 25 μL of test articles in assay buffer was added to cells. Cells were incubated for 45 minutes at room temperature. After 45 minutes, assay buffer was removed and 10 μL of lysis buffer was added. Plates were shaken for 20 minutes at 350 RPM at room temperature. After complete lysis, AlphaLisa reagents were added to the lysate, and fluorescence intensity was measured using a Perkin Elmer Envision plate reader. Intensities were used to generate a standard curve, and % activation was calculated. Curve fitting was performed using Prism v9 software, log(agonist) vs response—variable slope (four parameters), and EC50s were calculated from the curve fit.
The results presented in Table D have been generated with the in vitro assay described above. This assay may be used to test any of the compounds described herein to assess and characterize a compound's ability to act as an agonist of TREM2.
Work on `C[C@@H]1CN(c2nc(-c3ccc(F)cc3F)c3sc(N(C)C)nc3n2)C[C@H](c2cnn(C3CC3)c2)O1` (single isomer, unassigned) [Compound I-84] yielded an EC50 of at most 50 nM.
Compound `CC(C)n1ncc2c(-c3ccc(F)cc3F)nc(N3C[C@@H](C)O[C@@H](c4cnn(C5CC5)c4)C3)nc21` [Compound I-139] has an EC50 of 500 to 3000 nM.
Work on `Cc1nc2nc([C@@H]3CCO[C@@H](c4cnn(C5CC5)c4)C3)nc(-c3ccc(F)cc3F)c2s1` [Compound I-14, 5-[(2R,4R)-2-(1-cyclopropylpyrazol-4-yl)tetrahydropyran-4-yl]-7-(2,4-difluorophenyl)-2-methyl-thiazolo[4,5-d]pyrimidine] yielded an EC50 of 500 to 3000 nM.
`C[C@@H]1CN(c2nc(-c3ccc(F)cc3F)c3c(n2)nc(N2CCC2)n3C)C[C@H](c2cnn(C3CC3)c2)O1` [Compound I-191, (2S,6R)-4-(8-(azetidin-1-yl)-6-(2,4-difluorophenyl)-7-methyl-7H-purin-2-yl)-2-(1-cyclopropyl-1H-pyrazol-4-yl)-6-methylmorpholine] showed an EC50 of 50 to 500 nM.
Work on `CN(C)c1nc2nc([C@@H]3CCO[C@@H](c4cnn(C5CC5)c4)C3)nc(C3CCCCC3)c2s1` (single isomer, unassigned) [Compound I-205] yielded an EC50 of 500 to 3000 nM.
For `Cn1c(N2CCC2)nc2nc([C@H]3CCO[C@@H](c4cnn(C5CC5)c4)C3)nc(-c3ccc(F)cc3F)c21` [Compound I-293, 8-(azetidin-1-yl)-2-((2R,4S)-2-(1-cyclopropyl-1H-pyrazol-4-yl)tetrahydro-2H-pyran-4-yl)-6-(2,4-difluorophenyl)-7-methyl-7H-purine], the EC50 was 50 to 500 nM.
For `CN(C)c1nc2nc(N3CCC(F)(F)C(c4cnn(C5CC5)c4)C3)nc(-c3ccc(C(F)(F)F)cc3F)c2s1` (racemic) [Compound I-185, 5-(3-(1-cyclopropyl-1H-pyrazol-4-yl)-4,4-difluoropiperidin-1-yl)-7-(2-fluoro-4-(trifluoromethyl)phenyl)-N,N-dimethylthiazolo[4,5-d]pyrimidin-2-amine], the EC50 was 50 to 500 nM.
In the case of `C[C@@H]1CN(c2nc(-c3ccc(F)cc3F)c3sc(N(C)C)nc3n2)C[C@H](c2cnn(C(F)F)c2)O1` [Compound I-235, 5-((2S,6R)-2-(1-(difluoromethyl)-1H-pyrazol-4-yl)-6-methylmorpholino)-7-(2,4-difluorophenyl)-N,N-dimethylthiazolo[4,5-d]pyrimidin-2-amine], the EC50 is reported as at most 50 nM.
Work on `Cc1cc([C@H]2C[C@H](c3nc(-c4ccc(F)cc4F)c4sc(N(C)C)nc4n3)CCO2)ccn1` [Compound I-269, 7-(2,4-difluorophenyl)-N,N-dimethyl-5-[(2R,4R)-2-(2-methyl-4-pyridyl)tetrahydropyran-4-yl]thiazolo[4,5-d]pyrimidin-2-amine] yielded an EC50 of 50 to 500 nM.
`CN(c1nc2nc([C@H]3CCO[C@@H](c4cnn(C5CC5)c4)C3)nc(-c3ccc(F)cc3F)c2n1C)C1CC1` [Compound I-298] gave an EC50 of 50 to 500 nM.
Compound `CN(C)c1nc2nc(C3CCO[C@@H](c4cnn(C5CC5)c4)C3)nc(Oc3ccccc3)c2s1` (stereo partly drawn) [Compound I-210, 5-[(2R)-2-(1-cyclopropylpyrazol-4-yl)tetrahydropyran-4-yl]-N,N-dimethyl-7-phenoxy-thiazolo[4,5-d]pyrimidin-2-amine] has an EC50 of 500 to 3000 nM.
`C[C@@H]1CN(c2nc(-c3ccc(Cl)cc3F)c3sc(N(C)C)nc3n2)C[C@H](c2cnn(C3CC3)c2)O1` (racemic) [Compound I-22, 7-(4-chloro-2-fluoro-phenyl)-N,N-dimethyl-5-[rac-(2S,6R)-2-(1-cyclopropylpyrazol-4-yl)-6-methyl-morpholin-4-yl]thiazolo[4,5-d]pyrimidin-2-amine] gave an EC50 of 50 to 500 nM.
`CN(C)c1nc2nc(N3CCC(F)(F)C(c4cnn(C5CC5)c4)C3)nc(-c3ccc(F)cc3F)c2s1` (stereo not drawn) [Compound I-245, 5-(3-(1-cyclopropyl-1H-pyrazol-4-yl)-4,4-difluoropiperidin-1-yl)-7-(2,4-difluorophenyl)-N,N-dimethylthiazolo[4,5-d]pyrimidin-2-amine] showed an EC50 of at most 50 nM.
Compound `CN(C)c1nc2nc([C@H]3CCO[C@@H](c4cnn(C5CC5)c4)C3)nc(-c3ccc(F)cc3F)c2s1` (single isomer, unassigned) [Compound I-89] has an EC50 of 50 to 500 nM.
Work on `Fc1cc(C(F)(F)F)ccc1-c1nc([C@H]2CCO[C@@H](c3cnn(C4CC4)c3)C2)nc2nc(C3CC3)sc12` (single isomer, unassigned) [Compound I-279] yielded an EC50 of at most 50 nM.
`C[C@@H]1CN(c2nc(-c3ccc(F)cc3F)c3c(n2)nc(N(C)C)n3C)C[C@H](c2cnn(C3CC3)c2)O1` [Compound I-144] gave an EC50 of at most 50 nM.
`C/N=c1/sc2c(-c3ccc(Cl)cc3F)nc(N3C[C@@H](C)O[C@@H](c4cnn(C5CC5)c4)C3)nc2n1CCF` [Compound I-159, (E)-7-(4-chloro-2-fluoro-phenyl)-3-(2-fluoroethyl)-N-methyl-5-[(2S,6R)-2-(1-cyclopropylpyrazol-4-yl)-6-methyl-morpholin-4-yl]thiazolo[4,5-d]pyrimidin-2-imine] showed an EC50 of 500 to 3000 nM.
With `C[C@@H]1CN(c2nc(-c3ccc(C(F)(F)F)cc3F)c3sc(N(C)C)nc3n2)C[C@H](c2cnn(C3CC3)c2)O1` [Compound I-258, 5-[(2S,6R)-2-(1-cyclopropylpyrazol-4-yl)-6-methyl-morpholin-4-yl]-7-[2-fluoro-4-(trifluoromethyl)phenyl]-N,N-dimethyl-thiazolo[4,5-d]pyrimidin-2-amine] the EC50 was at most 50 nM.
With `CNc1nc2nc(N3C[C@@H](C)O[C@@H](c4cnn(C5CC5)c4)C3)nc(-c3ccc(Cl)cc3F)c2s1` (single isomer, unassigned) [Compound I-94] the EC50 was 50 to 500 nM.
`COCn1cc([C@H]2CN(c3nc(-c4ccc(F)cc4F)c4sc(N(C)C)nc4n3)C[C@@H](C)O2)cn1` [Compound I-230, 7-(2,4-difluorophenyl)-5-[(2S,6R)-2-[1-(methoxymethyl)pyrazol-4-yl]-6-methyl-morpholin-4-yl]-N,N-dimethyl-thiazolo[4,5-d]pyrimidin-2-amine] was tested, and the EC50 was at most 50 nM.
For `Cc1cc([C@H]2CN(c3nc(-c4ccc(C(F)(F)F)cc4F)c4sc(N(C)C)nc4n3)C[C@@H](C)O2)ccn1` [Compound I-263, 7-[2-fluoro-4-(trifluoromethyl)phenyl]-N,N-dimethyl-5-[(2R,6S)-2-methyl-6-(2-methyl-4-pyridyl)morpholin-4-yl]thiazolo[4,5-d]pyrimidin-2-amine], the EC50 was 50 to 500 nM.
`C[C@@H]1CN(c2nc(-c3ccc(Cl)cc3F)c3sc(N(C)CCO)nc3n2)C[C@H](c2cnn(C3CC3)c2)O1` (single isomer, unassigned) [Compound I-104] gave an EC50 of 50 to 500 nM.
For `Cc1cc(C2CN(c3nc(-c4ccc(C(F)(F)F)cc4F)c4sc(N(C)C)nc4n3)CCC2(F)F)ccn1` (racemic) [Compound I-188, 5-(4,4-difluoro-3-(2-methylpyridin-4-yl)piperidin-1-yl)-7-(2-fluoro-4-(trifluoromethyl)phenyl)-N,N-dimethylthiazolo[4,5-d]pyrimidin-2-amine], the EC50 was 50 to 500 nM.
For `CN(C)c1nc2nc([C@@H]3CCO[C@@H](c4cnn(C5CC5)c4)C3)nc(-c3ccc(C(F)(F)F)cc3F)c2s1` (single isomer, unassigned) [Compound I-135], the EC50 was 500 to 3000 nM.
`CN(C)c1nc2nc(N3CCC(F)(F)[C@@H](c4cnn(C5CC5)c4)C3)nc(-c3ccc(C(F)(F)F)cc3F)c2s1` (single isomer, unassigned) [Compound I-199] was tested, and the EC50 was 50 to 500 nM.
With `CC(=O)N(C)c1nc2nc(N3C[C@@H](C)O[C@@H](c4cnn(C5CC5)c4)C3)nc(-c3ccc(Cl)cc3F)c2s1` (single isomer, unassigned) [Compound I-99] the EC50 was 50 to 500 nM.
With `CCn1/c(=N\C)sc2c(-c3ccc(Cl)cc3F)nc(N3C[C@@H](C)O[C@@H](c4cnn(C5CC5)c4)C3)nc21` [Compound I-154, (E)-7-(4-chloro-2-fluoro-phenyl)-3-ethyl-N-methyl-5-[(2S,6R)-2-(1-cyclopropylpyrazol-4-yl)-6-methyl-morpholin-4-yl]thiazolo[4,5-d]pyrimidin-2-imine] the EC50 was 500 to 3000 nM.
`COCn1cc([C@H]2CN(c3nc(-c4ccc(C(F)(F)F)cc4F)c4sc(N(C)C)nc4n3)C[C@@H](C)O2)cn1` [Compound I-149, 7-[2-fluoro-4-(trifluoromethyl)phenyl]-5-[(2S,6R)-2-[1-(methoxymethyl)pyrazol-4-yl]-6-methyl-morpholin-4-yl]-N,N-dimethyl-thiazolo[4,5-d]pyrimidin-2-amine] was tested, and the EC50 was 50 to 500 nM.
For `C[C@@H]1CN(c2nc(-c3cc(F)c(F)cc3F)c3sc(N(C)C)nc3n2)C[C@H](c2cnn(C3CC3)c2)O1` [Compound I-273, 5-[(2S,6R)-2-(1-cyclopropylpyrazol-4-yl)-6-methyl-morpholin-4-yl]-N,N-dimethyl-7-(2,4,5-trifluorophenyl)thiazolo[4,5-d]pyrimidin-2-amine], the EC50 was at most 50 nM.

Same assay, conditions: Table D; HEK293 cells expressing human TREM2 and DAP12; pSyk AlphaLisa
Compound `Cc1nc2nc([C@H]3CCO[C@@H](c4cnn(C5CC5)c4)C3)nc(-c3ccc(F)cc3F)c2o1` [Compound 5, 5-((2R,4S)-2-(1-cyclopropyl-1H-pyrazol-4-yl)tetrahydro-2H-pyran-4-yl)-7-(2,4-difluorophenyl)-2-methyloxazolo[4,5-d]pyrimidine] has an EC50 of 500 to 3000 nM.
